Assay results as given in patent publication US5070210A, “Novel ketenimines as intermediates for insecticides” (ICI Americas Inc., priority 1990, dated 1991).

Tests used:
Format in all cases: in vivo
[1] = tested on: Housefly [Musca domestica]; experiment: Housefly insecticidal test; details: μg per 25 female flies; mortality after 48 hours
Procedure, shortened: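 Dose range started at 100 μg per 25 female flies and went downward. Insects (1-2 days old) contacted a dried acetone/peanut-oil deposit in dishes; LC50 values come from dosage-mortality curves at 48 h.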

[2] = tested on: Cabbage Looper [Trichoplusia ni (Hubner)]; experiment: Cabbage looper insecticidal test; details: second-instar larvae, percent in solution; 3-5 days
Procedure, shortened: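 LC50, as percent test compound in solution, derived from dosage-mortality curves; concentrations started at 0.1% and went lower. Five second-instar larvae per dish fed on acetone-water-dipped, dried squash cotyledons in a humid chamber. Deaths recorded 3-5 days post-infestation.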

[3] = tested on: Tobacco Budworm [Heliothis virescens (Fabricius)] eggs; experiment: Tobacco budworm egg test; details: 2-day old eggs, percent in solution
Procedure, shortened: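 LC50 is given as percent compound in the dipping solution, fitted from dosage-mortality curves. Two-day-old eggs on paper towel were dipped in acetone solutions (top concentration 0.1%), kept at 78° F on rearing medium, and scored after control hatch and larval feeding.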

[4] = tested on: Maize weevil [Sitophilus Zeamais (Motschulsky)]; experiment: Maize weevil insecticidal test; details: adult weevils, percent in solution; 48 hours
Method: The compounds in Tables 1 and 2 above were tested for insecticidal activity using the following testing procedures. LC50 values, based on the results of these tests and calculated according to dosage-mortality curves, are expressed in Table 3.
Maize weevil [Sitophilus Zeamais (Motschulsky)]:
Test compounds were diluted in a 50:50 acetone:water solution. Four corn seeds [Zea mays (L.)] which had been immersed in test solutions for 2-3 seconds and allowed to dry were placed in containers together with 10 adult weevils. The containers were covered and kept at a temperature of about 25° C. Mortality was recorded after 48 hours. Test concentrations ranged from 0.01% down to that at which 50% mortalilty occurred. The LC50 values are expressed below in Table 3 under the heading "MW" in terms of percent of the test compound in solution.

| SMILES | LC50, HF [1] | LC50, CL [2] | LC50, TBW, E (TBW-E) [3] | LC50, MW [4] |
| --- | --- | --- | --- | --- |
| Cc1cccc(N=C(OCc2cccc(Oc3ccc(F)cc3)c2)C(C)C)c1 [Compound 405] | < 100 µg | > 0.1% | > 0.1% | > 0.01% |
| Cc1ccc(N=C(OCc2ccc(F)c(Oc3ccc(Cl)cc3)c2)C(C)C)cc1C [Compound 406] | < 100 µg | > 0.1% | < 0.1% | > 0.01% |
| Cc1cc(N=C(OCc2ccc(F)c(Oc3ccc(Cl)cc3)c2)C(C)C)ccc1Br [Compound 407] | > 100 µg | > 0.1% | 0.05% | > 0.01% |
| COc1ccc(N=C(OCc2ccc(F)c(Oc3ccc(F)cc3)c2)C(C)C)cc1Cl [Compound 408] | < 100 µg | 0.0015% | 0.02% | > 0.01% |
| COc1ccc(N=C(OCc2ccc(F)c(Oc3ccccc3)c2)C(C)C)cc1Cl [Compound 409] | < 100 µg | 0.0017% | 0.025% | > 0.01% |
| COc1ccc(N=C(OCc2ccc(F)c(Oc3ccc(Cl)cc3)c2)C(C)C)cc1Cl [Compound 410] | < 100 µg | > 0.1% | > 0.1% | > 0.01% |
| CCc1ccccc1N=C(OCc1cccc(Oc2ccc(F)cc2)c1)C(C)C [Compound 411] | < 100 µg | > 0.1% | > 0.1% | > 0.01% |
| COc1ccc(N=C(OCc2ccc(F)c(Oc3ccc(Cl)cc3)c2)C(C)C)cc1 [Compound 412] | < 100 µg | > 0.1% | > 0.1% | > 0.01% |
| CC(C)C(=Nc1ccc(F)c(I)c1)OCc1cccc(Oc2ccc(Cl)cc2)c1 [Compound 413] | < 100 µg | 0.0007% | 0.04% | > 0.01% |
| CC(C)C(=Nc1ccc(S(C)(=O)=O)cc1)OCc1ccc(F)c(Oc2ccc(F)cc2)c1 [Compound 414] | < 100 µg | 0.0024% | > 0.1% | > 0.01% |
| C=C(C)C(=Nc1ccc(F)c(Cl)c1)OCc1ccc(F)c(Oc2ccc(Cl)cc2)c1 [Compound 415] | < 100 µg | 0.00075% | 0.035% | > 0.01% |
| C=C(C)C(=Nc1ccc(F)c(Cl)c1)OCc1ccc(F)c(Oc2ccccc2)c1 [Compound 416] | < 100 µg | 0.00027% | 0.018% | > 0.01% |
| C=C(C)C(=Nc1ccc(F)c(Cl)c1)OCc1cccc(Oc2ccccc2)c1 [Compound 417] | < 100 µg | 0.0008% | 0.04% | > 0.01% |
| CC(C)C(=Nc1ccc(OC(F)(F)C(F)Cl)cc1)OCc1cccc(Oc2ccccc2)c1 (centres unmarked) [Compound 418] | > 100 µg | > 0.1% | > 0.1% | > 0.01% |
| CC(C)C(=Nc1ccc(OC(F)(F)C(F)Cl)cc1)OCc1ccc(F)c(Oc2ccccc2)c1 (centres unmarked) [Compound 419] | > 100 µg | > 0.1% | > 0.1% | > 0.01% |
| CC(C)C(=Nc1ccc(OCC(F)(F)F)c(Cl)c1)OCc1cccc(Oc2ccc(F)cc2)c1 [Compound 420] | > 100 µg | 0.00075% | 0.05% | > 0.01% |
| CC(C)C(=Nc1ccc(OCC(F)(F)F)c(Cl)c1)OCc1cccc(Oc2ccc(Cl)cc2)c1 [Compound 421] | > 100 µg | 0.002% | < 0.1% | > 0.01% |
